Data as given in ChEMBL document CHEMBL1201862, “PubChem BioAssay data set” (2004).
The source made the active and inactive calls.

Assays:
[1] = molecular target: Tyrosine-protein kinase Lyn (Homo sapiens, UniProt P07948); type: functional;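 also: lyn as one member of a kinase panel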
[2] = molecular target: Serine/threonine-protein kinase N2 (Homo sapiens, UniProt Q16513); type: functional
[3] = molecular target: Tyrosine-protein kinase Fer (Homo sapiens, UniProt P16591); type: functional;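 also: FER tested as one member of a kinome panel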
[4] = molecular target: Cell division cycle 7-related protein kinase (Homo sapiens, UniProt O00311); type: functional;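 also: value obtained from a kinome-wide kinase panel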
[5] = molecular target: Glycogen synthase kinase-3 beta (Homo sapiens, UniProt P49841); type: functional;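 also: value comes from a broad kinome profiling panel, with GSK3B as the panel member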
[6] = HepG2 cell cytotoxicity, dose response, cytotoxicity control for Shn3 inhibitor project, CellTiter-Glo, cherry-picked (AID 624134); type: functional, cell-based
[7] = molecular target: Dual specificity protein phosphatase 3 (Homo sapiens, UniProt P51452); assay: VHR1 phosphatase inhibitors, biochemical (AID 1878)
[8] = C. albicans growth with fluconazole, confirmation, fluorescence, retest (AID 2467); type: functional, cell-based
[9] = molecular target: T1, Replicative DNA helicase DnaB (Mycobacterium tuberculosis, UniProt P9WMR3); assay: DnaB intein splicing inhibitors, dose response, biochemical, cell-free fluorescence (AID 449749); type: functional
T1 sequence (P9WMR3 whole entry): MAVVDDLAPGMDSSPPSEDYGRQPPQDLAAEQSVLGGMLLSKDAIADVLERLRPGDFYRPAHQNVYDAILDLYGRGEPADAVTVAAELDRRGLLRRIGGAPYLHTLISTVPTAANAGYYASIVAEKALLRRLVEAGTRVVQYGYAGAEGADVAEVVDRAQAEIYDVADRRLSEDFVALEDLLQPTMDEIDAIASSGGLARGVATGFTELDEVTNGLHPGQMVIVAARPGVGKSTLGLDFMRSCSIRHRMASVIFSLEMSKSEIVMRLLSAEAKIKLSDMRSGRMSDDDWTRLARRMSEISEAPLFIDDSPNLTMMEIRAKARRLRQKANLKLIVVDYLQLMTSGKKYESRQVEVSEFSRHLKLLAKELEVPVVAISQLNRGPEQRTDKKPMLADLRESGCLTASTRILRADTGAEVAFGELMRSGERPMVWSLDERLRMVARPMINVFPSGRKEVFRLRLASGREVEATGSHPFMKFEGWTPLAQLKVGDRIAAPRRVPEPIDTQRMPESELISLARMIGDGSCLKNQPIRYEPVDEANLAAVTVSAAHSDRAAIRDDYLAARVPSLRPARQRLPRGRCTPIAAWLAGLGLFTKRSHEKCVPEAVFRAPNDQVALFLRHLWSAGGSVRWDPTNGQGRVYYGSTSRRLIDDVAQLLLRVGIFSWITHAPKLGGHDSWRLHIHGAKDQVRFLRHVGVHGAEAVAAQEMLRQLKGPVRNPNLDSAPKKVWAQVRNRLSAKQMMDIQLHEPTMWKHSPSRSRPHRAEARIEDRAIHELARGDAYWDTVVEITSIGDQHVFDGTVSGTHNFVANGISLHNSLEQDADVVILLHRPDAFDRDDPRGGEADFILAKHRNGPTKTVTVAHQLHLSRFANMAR

[10] = molecular target: T2, Tyrosine-protein phosphatase non-receptor type 7 (Homo sapiens, UniProt P35236); type: functional
T2 sequence (P35236 whole entry): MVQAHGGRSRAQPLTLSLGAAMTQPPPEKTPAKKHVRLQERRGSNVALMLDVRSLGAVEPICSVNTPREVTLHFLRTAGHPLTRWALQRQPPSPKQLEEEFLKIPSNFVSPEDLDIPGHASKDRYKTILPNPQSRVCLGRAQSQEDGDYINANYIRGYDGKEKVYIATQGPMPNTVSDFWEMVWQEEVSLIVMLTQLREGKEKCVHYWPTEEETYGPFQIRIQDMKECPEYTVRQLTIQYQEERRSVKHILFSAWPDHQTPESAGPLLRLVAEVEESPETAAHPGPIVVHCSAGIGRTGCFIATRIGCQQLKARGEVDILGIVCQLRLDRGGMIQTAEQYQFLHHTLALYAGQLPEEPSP

[11] = inhibitors of PGC1a acetylation in cells, dose response, cell-based, cherry-picked samples (AID 720514); type: functional;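 also: potency may reflect raised or lowered acetylation signal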
[12] = molecular target: T3, Sentrin-specific protease 8 (Homo sapiens, UniProt Q96LD8); type: functional;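 also: luminescence read-out of SENP8 inhibition, dose-response confirmation following an ultra-high-throughput screen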
T3 sequence (Q96LD8 whole entry): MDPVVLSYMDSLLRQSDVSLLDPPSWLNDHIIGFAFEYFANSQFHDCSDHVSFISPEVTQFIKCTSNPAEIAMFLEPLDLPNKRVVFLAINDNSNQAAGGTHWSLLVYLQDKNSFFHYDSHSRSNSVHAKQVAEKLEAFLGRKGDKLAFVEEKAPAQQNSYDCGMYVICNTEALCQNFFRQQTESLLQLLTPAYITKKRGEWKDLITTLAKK

[13] = molecular target: T4, Sentrin-specific protease 7 (Homo sapiens, UniProt Q9BQF6); type: functional;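 also: Luminescence-based dose-response confirmation of ultra-high-throughput screening hits, measuring inhibition of SENP7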
T4 sequence (Q9BQF6 whole entry): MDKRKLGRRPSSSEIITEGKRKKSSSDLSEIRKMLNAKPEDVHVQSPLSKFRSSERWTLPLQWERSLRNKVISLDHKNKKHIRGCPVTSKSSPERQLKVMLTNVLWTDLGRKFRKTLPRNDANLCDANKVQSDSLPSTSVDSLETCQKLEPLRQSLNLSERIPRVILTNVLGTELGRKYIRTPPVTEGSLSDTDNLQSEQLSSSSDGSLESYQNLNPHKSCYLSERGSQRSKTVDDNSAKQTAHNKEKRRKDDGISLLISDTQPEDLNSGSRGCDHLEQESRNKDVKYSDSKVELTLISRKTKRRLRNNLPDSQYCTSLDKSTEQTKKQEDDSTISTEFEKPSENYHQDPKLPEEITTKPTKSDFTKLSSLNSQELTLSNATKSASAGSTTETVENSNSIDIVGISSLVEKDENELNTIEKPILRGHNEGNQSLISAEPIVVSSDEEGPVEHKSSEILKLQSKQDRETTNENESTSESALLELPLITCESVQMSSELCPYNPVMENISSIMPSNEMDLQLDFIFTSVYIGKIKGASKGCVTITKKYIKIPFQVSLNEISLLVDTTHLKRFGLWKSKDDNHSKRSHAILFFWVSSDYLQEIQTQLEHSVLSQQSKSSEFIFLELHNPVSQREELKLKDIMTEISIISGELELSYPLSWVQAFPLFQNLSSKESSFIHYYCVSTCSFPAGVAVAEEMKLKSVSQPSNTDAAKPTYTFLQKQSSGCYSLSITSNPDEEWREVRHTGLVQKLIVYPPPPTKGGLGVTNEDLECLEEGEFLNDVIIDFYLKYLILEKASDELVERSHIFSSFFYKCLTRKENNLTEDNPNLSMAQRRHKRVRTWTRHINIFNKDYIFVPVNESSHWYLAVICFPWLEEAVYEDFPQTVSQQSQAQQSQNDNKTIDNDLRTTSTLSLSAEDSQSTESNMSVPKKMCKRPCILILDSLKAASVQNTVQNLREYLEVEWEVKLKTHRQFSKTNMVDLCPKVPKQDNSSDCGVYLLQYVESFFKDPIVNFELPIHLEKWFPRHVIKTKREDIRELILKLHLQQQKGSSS

Sequence of Glycogen synthase kinase-3 beta (P49841 whole entry): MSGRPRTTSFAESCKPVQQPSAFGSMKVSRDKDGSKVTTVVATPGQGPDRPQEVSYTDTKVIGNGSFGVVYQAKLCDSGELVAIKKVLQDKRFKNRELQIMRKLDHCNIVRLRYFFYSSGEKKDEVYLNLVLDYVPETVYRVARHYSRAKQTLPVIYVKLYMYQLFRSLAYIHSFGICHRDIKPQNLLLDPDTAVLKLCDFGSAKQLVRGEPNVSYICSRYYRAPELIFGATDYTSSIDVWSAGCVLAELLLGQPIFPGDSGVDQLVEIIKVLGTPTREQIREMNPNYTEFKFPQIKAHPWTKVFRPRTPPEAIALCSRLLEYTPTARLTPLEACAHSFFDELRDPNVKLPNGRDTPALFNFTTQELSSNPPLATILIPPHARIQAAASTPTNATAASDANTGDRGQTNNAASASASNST
Sequence of Cell division cycle 7-related protein kinase (O00311 whole entry): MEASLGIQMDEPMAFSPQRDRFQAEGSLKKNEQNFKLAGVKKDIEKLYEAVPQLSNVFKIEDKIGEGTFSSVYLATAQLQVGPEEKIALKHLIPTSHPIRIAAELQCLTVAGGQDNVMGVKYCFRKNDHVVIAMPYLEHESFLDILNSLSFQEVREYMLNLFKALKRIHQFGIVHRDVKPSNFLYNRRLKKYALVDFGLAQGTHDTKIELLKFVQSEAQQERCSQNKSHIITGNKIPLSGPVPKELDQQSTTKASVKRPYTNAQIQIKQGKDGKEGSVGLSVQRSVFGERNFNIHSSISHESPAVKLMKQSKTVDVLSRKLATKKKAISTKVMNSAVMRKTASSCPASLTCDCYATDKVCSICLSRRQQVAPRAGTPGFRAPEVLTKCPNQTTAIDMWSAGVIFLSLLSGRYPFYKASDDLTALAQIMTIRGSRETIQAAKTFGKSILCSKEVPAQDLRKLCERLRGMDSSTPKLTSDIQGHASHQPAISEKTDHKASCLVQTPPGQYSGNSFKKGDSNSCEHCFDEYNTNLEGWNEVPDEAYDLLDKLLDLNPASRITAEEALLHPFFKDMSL
Sequence of Tyrosine-protein kinase Fer (P16591 whole entry): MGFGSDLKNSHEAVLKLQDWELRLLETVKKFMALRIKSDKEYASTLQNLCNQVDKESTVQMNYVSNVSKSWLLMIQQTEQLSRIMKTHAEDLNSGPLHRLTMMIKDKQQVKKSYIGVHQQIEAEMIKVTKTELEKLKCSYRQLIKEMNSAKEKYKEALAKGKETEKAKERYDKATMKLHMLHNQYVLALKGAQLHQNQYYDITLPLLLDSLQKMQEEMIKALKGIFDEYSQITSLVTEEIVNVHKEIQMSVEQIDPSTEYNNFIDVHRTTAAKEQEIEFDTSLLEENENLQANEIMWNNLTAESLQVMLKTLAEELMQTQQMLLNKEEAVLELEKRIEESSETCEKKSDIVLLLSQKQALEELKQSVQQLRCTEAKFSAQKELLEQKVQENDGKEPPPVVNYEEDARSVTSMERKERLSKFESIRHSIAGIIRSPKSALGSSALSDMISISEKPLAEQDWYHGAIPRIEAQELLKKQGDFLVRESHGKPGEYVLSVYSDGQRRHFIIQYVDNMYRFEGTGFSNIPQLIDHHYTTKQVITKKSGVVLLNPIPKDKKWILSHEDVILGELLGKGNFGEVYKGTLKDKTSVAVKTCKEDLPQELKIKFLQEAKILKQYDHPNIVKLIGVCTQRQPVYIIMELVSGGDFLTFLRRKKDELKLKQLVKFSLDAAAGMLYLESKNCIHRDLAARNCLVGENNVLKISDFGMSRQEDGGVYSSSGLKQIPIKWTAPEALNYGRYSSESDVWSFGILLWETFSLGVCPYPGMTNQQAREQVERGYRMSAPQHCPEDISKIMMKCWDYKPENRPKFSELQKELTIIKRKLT
Sequence of Dual specificity protein phosphatase 3 (P51452 whole entry): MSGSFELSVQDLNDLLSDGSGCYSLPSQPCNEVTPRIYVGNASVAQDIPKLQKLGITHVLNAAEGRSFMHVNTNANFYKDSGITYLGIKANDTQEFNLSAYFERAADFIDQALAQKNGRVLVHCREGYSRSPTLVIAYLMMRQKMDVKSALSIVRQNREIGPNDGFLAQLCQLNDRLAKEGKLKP
Sequence of Tyrosine-protein kinase Lyn (P07948 whole entry): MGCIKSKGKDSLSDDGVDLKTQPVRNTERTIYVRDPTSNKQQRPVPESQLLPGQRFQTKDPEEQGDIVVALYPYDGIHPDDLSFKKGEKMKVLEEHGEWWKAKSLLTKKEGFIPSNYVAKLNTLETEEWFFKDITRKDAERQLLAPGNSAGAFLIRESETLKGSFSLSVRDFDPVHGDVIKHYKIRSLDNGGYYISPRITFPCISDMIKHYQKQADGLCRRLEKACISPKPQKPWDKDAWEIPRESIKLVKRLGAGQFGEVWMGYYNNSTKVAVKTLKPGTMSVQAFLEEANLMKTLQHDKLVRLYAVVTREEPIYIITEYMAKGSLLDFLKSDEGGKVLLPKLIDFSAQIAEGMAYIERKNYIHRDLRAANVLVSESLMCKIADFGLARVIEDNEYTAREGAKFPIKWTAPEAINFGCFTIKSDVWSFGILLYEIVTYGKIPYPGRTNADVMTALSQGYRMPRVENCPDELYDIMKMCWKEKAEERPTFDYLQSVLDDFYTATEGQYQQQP
Sequence of Serine/threonine-protein kinase N2 (Q16513 whole entry): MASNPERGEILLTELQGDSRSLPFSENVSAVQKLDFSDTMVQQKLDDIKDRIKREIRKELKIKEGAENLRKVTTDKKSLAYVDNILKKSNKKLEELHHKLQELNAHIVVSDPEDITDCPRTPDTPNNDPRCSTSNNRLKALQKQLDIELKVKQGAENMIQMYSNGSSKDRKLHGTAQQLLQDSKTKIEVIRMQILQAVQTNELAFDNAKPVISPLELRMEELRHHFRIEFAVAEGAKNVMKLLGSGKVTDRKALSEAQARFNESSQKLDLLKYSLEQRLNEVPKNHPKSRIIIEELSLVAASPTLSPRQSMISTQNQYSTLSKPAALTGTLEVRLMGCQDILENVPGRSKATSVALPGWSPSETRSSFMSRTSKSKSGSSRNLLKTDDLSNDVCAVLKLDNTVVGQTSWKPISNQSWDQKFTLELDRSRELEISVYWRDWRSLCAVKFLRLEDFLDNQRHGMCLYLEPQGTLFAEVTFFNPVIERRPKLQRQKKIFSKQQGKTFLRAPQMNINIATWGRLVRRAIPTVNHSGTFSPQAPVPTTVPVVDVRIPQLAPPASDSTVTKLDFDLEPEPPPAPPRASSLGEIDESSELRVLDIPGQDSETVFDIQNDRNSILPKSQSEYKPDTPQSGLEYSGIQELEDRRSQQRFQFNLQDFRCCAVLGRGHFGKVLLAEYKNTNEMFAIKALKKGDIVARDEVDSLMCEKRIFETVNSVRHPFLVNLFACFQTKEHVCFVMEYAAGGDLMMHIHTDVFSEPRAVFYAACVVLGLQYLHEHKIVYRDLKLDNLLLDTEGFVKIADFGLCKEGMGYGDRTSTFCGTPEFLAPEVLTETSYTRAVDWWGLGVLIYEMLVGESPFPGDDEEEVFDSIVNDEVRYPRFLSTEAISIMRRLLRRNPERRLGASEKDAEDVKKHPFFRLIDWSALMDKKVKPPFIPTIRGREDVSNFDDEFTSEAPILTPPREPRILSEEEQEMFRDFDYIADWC

## COc1cc2c(cc1Nc1nc(Nc3cccc(F)c3C(N)=O)c3cc[nH]c3n1)N(C(=O)CN(C)C)CC2
[1]
  Ki: > 1.58 µM (inactive)
[2]
  Ki: > 7.94 µM (inactive)
[3]
  Ki: 0.00158 µM (active)
[4]
  Ki: 0.631 µM (active)
[5]
  Ki: > 3.98 µM (inactive)

## CCn1nc(/C=C/c2ccccc2)nc2c(=O)n(C)c(=O)nc1-2
[6]
  AC50: 12 µM (active)
[7]
  IC50: 106 µM (inactive)
[8]
  EC50: 0.63 µM (active)
[9]
  AC50: 0.487 µM (active)
[10]
  IC50: 10.3 µM (active)
[11]
  AC50: 2.87 µM (active)

## CC(C)c1ccc(-c2nnn(CCC(=O)O)n2)cc1
[12]
  IC50: 7.27 µM (active)
[13]
  IC50: 7.22 µM (active)
